Experimental data from publication PMC4850295, “Using a Genetically Encoded Sensor to Identify Inhibitors of Toxoplasma gondii Ca^2+ Signaling” (The Journal of Biological Chemistry, 2016).
pIC50: −log10 of the molar value.

What follows are molecules tested against T1, recombinant T. gondii PKG (cGMP-dependent protein kinase; protein kinase G) (Toxoplasma gondii, UniProt Q8MMZ7) (assay: in vitro kinase assay (CycLex PKG assay kit)). Conditions: 6.76 nM recombinant PKG.
Format: biochemical

T1 sequence (Q8MMZ7 whole entry): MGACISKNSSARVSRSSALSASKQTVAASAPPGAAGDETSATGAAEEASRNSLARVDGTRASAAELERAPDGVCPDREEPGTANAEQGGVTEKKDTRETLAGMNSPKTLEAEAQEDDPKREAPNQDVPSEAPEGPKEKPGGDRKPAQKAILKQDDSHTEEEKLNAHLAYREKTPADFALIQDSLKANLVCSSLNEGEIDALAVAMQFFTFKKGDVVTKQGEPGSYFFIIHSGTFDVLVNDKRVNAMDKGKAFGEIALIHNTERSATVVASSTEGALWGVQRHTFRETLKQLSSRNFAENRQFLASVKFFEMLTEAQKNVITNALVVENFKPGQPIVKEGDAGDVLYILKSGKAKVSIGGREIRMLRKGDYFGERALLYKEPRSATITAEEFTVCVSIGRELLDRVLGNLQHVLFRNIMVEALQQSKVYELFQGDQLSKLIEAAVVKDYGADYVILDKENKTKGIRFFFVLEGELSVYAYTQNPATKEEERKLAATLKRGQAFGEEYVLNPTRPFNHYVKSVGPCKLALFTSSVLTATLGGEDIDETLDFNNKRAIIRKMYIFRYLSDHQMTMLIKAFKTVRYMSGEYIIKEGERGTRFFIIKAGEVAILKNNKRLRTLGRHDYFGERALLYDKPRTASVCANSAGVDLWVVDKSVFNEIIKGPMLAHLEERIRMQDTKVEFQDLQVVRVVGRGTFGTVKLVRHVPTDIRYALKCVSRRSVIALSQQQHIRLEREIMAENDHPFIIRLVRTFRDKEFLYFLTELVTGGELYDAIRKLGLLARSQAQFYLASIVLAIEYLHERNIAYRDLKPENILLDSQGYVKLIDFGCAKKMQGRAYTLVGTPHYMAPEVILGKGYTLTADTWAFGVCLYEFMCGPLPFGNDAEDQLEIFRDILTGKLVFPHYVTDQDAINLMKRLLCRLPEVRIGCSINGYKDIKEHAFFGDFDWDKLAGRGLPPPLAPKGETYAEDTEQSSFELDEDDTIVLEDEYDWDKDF

| SMILES | activity versus inhibitor concentration |
| --- | --- |
| CN(C)Cc1ccn2c(-c3ccnc(N)n3)c(-c3ccc(F)cc3)nc2c1 [Cpd2, Compound 2] | presence of increasing concentrations of Inh1, Inh2, or the PKG inhibitor Cpd2 |

What follows are molecules tested against T1, recombinant T. gondii PKG (cGMP-dependent protein kinase; protein kinase G) (assay: in vitro kinase assay (CycLex PKG assay kit)). Conditions: not given.
Format: biochemical

| SMILES | pIC50 |
| --- | --- |
| Fc1ccc(-c2nn3ncccc3c2-c2ccnc(Nc3ccc4c(c3)OCCO4)n2)cc1 [Inh1] | 6.24 |
| Nc1nc(-c2ccc3c(c2)C(=Cc2cc(Br)c(O)c(Br)c2)C(=O)N3)cs1 [Inh2] | 6.17 |

Each molecule was assayed on T2, GCaMP5-expressing T. gondii (assay: not given). Conditions: 100 uM zaprinast stimulation, 10 min pretreatment, mean of two replicates, 0.23 h, 10 µM.
T2 construct: whole extracellular parasites expressing GCaMP5 Ca2+ sensor
Set-up: species or system GCaMP5-expressing Toxoplasma gondii, extracellular; GCaMP5 fluorescence (cytosolic Ca2+) after 100 uM zaprinast in compound-pretreated extracellular parasites, background-subtracted, relative to zaprinast alone
How it was run: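 Read-out is GCaMP5 calcium fluorescence (ex 485/em 525 nm) taken 4 min after 100 μM zaprinast at 37 °C, following 10 min compound pretreatment at 10 μM in duplicate biological replicates. Values are basal-subtracted fold change versus zaprinast-only controls; parasites held extracellular in Ringer's solution.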

| SMILES | fold change in fluorescence relative to zaprinast alone |
| --- | --- |
| Fc1ccc(-c2nc3n(c2-c2ccncc2)CCS3)cc1 [SKF-86002] | 1.092 |

Same assay, conditions: 100 uM zaprinast stimulation; 10 min pretreatment; mean of two replicates; 0.23 h

| SMILES | fold change in fluorescence relative to zaprinast alone |
| --- | --- |
| Fc1ccc(-c2nn3ncccc3c2-c2ccnc(Nc3ccc4c(c3)OCCO4)n2)cc1 [Inh1] | -0.1251 |
| Nc1nc(-c2ccc3c(c2)C(=Cc2cc(Br)c(O)c(Br)c2)C(=O)N3)cs1 [Inh2] | 0.1475 |
| Nc1nc(N)c2[nH]c(-c3ccccc3)nc2n1 [SKF-12778] | 1.022 |
| Cn1ncc2c(N)ncnc21 [SKF-18267] | 0.9633 |
| CNc1ncnc2[nH]ncc12 [SKF-18355] | 1.025 |
| CN(C)c1ncnc2nc[nH]c12 [SKF-31736] | 1.087 |
| Fc1ccc(-c2c(-c3ccncc3)nc3n2CCS3)cc1 [SKF-86055] | 1.285 |
| CCn1cnc2c(NCc3ccccc3)ncnc21 [SKF-96418] | 0.8238 |
| Nc1ncnc2c1ncn2-c1cccc2ccccc12 [SKF-97184] | 0.9854 |
| COc1ccc(-n2cnc3c(N)ncnc32)cc1 [SKF-97236] | 1.027 |
| CCCCCc1nc2c(N)ncnc2n1CCCCC [SKF-97255] | 0.8987 |
| CC(C)(C)c1ccc(-n2cnc3c(N)ncnc32)cc1 [SKF-97263] | 1.008 |
| Nc1ncnc2c1nc(-c1ccccc1)n2-c1ccccc1 [SKF-97293] | 1.205 |
| CC(C)(C)n1cnc2c(N)ncnc21 [SKF-97359] | 1.052 |
| COc1cccc(-n2cnc3c(N)ncnc32)c1 [SKF-97416] | 1.043 |
| Cc1ccccc1-n1cnc2c(N)ncnc21 [SKF-97510] | 1.09 |
| Nc1ncnc2c1ncn2-c1cccc(F)c1 [SKF-97560] | 1.042 |
| CCC(CC)(CC)n1cnc2c(N)ncnc21 [SKF-97620] | 0.9821 |
| Cn1cnc2c(N)ncnc21 [SKF-97623] | 1.06 |
| Fc1ccc(-c2c(-c3ccccn3)nc3n2CCS3)cc1 [SKF-104365] | 0.9062 |
| COc1ccc(-c2nc3n(c2-c2ccncc2)CCC3)cc1 [SKF-104493-B2] | 0.9045 |
| CSc1ccc(-c2nc3n(c2-c2ccncc2)CCC3)cc1 [SKF-105561] | 0.9692 |
| CS(=O)(=O)c1ccc(-c2nc3n(c2-c2ccncc2)CCC3)cc1 [SKF-105942] | 0.9941 |
| CCSc1ccc(-c2nc3n(c2-c2ccncc2)CCC3)cc1 [SKF-106164-A2] | 1.019 |
